{
  "source": "patent US6630310B1",
  "about": "“Assay for binding between carbohydrate and glycolipid” (Biopolymer Engineering Pharmaceutical, Inc., priority 1996, dated 2003)",
  "key": {"NF-IL6 [1]": {"system": "NF-IL6", "test": "EMSA of NF-IL6 activation in human neutrophils", "format": "cell-based", "details": "3 μg/ml, 60 minutes at 37° C., relative to control or dextran (FIG. 16B)", "description": "Purified human neutrophils were incubated with or without underivatized, aqueous soluble β(1-3)-glucan (3 μg/ml) or dextran (3 μg/ml) for 60 minutes at 37° C. Nuclear extracts were prepared and protein/DNA complex formation assessed by electrophoretic mobility shift assay (EMSA). As shown in FIGS. 16A and 16B, underivatized, aqueous soluble β(1-3)-glucan increased the binding of nuclear extract proteins to an NF-kB or NF-IL6 specific 32P-labeled oligonucleotide probe relative to extracts from either control or dextran-treated neutrophils.\nHuman neutrophils (4.5×10^6 cells/ml; 10 ml total) purified as described above were incubated in RPMI+10% FCS (Sigma Chemical Co.) for 30 minutes at 37° C. Underivatized, aqueous soluble β(1-3)-glucan or dextran (both at 3 μg/ml) were then added and incubation continued an additional 60 minutes at 37° C. Nothing was added to control cells. At the end of the incubation, cells were washed in ice cold PBS+20 mM EDTA and nuclear extracts prepared and EMSAs performed as described above."}, "NF-IL6 [2]": {"system": "NF-IL6", "test": "EMSA of NF-IL6 activation in BMC2.3 cells", "format": "cell-based, murine", "details": "3 μg/ml, various times at 37° C. (FIG. 5)", "description": "In order to assess the activation of signal transduction as exemplified by the modulation of one or more transcriptional regulatory factors by underivatized, aqueous soluble β(1-3)-glucan, BMC2.3 cells were incubated with 3 μg/ml underivatized, aqueous soluble β(1-3)-glucan for various periods of time at 37° C. Nuclear extracts were prepared and incubated with ^32P-labeled DNA oligonucleotides specific for NF-κB or NF-IL6. The protein-^32P DNA complexes were separated from unbound ^32P DNA by gel electrophoresis (electrophoretic mobility shift assay, EMSA).\nBMC2.3 cells in DMEM plus 10% fetal calf serum were incubated with 3 μg/ml underivatized, aqueous soluble β(1-3)-glucan for various lengths of time. Nuclear extracts were prepared by the method of Dignam et al. (Nuc. Acid Res. 11:1475-1489 (1983)). Nuclear extracts were then incubated with ^32P-labeled DNA oligonucleotide for twenty minutes at room temperature. The sequence of the oligonucleotide used as the probe was […] (SEQ ID NO: 1). The reaction mixture was then separated on a 4% polyacrylamide gel and the results recorded autoradiographically."}, "[3]": {"test": "Competition of ^3H-PGG-Glucan binding to lactosyl ceramide in reconstituted membranes (FIG. 14)", "text": "(§1) FIG. 14 is a graph of the comparison of underivatized, aqueous soluble β(1-3)-glucan and single helix competition of ^3H-underivatized, aqueous soluble β(1-3)-glucan binding in three assay formats. Underivatized, aqueous soluble β(1-3)-glucan or single helix glucan was used at designated concentrations to compete for ^3H-underivatized, aqueous soluble β(1-3)-glucan binding to lactosyl ceramide (LacCer) in a 96-well plate (triangles), or to lactosyl ceramide in reconstituted membranes (squares), or to human leukocyte membranes (circles). Open symbols represent underivatized, aqueous soluble β(1-3) glucan, and closed symbols represent single helix. Maximum competition was assigned at the highest concentration of underivatized, aqueous soluble β(1-3)-glucan used as competitor in each type of assay.\nMembranes were prepared from the receptor-negative cell line, U937, and extracted with chloroform/methanol as described above. The upper and lower layers were combined after removal of the proteinaceous interphase and dried under a stream of argon with the sample to be assayed for binding (lactosyl ceramide or fractions from the purification). […]\nThe dried lipid/sample preparations were resuspended in HBSS (500 μL) by brief sonication, and centrifuged for 10 minutes at 12,000×g. […] Pellets were then dissolved in SOLVABLE™, scintillation fluid was added, and radioactivity was measured."}, "[4]": {"test": "Competition of ^3H-PGG-Glucan binding to lactosyl ceramide in 96-well plate assay (FIGS. 14, 15)", "parameters": "species or system bovine", "details": "FIGS. 14 and 15", "text": "as §1\nFIG. 15 is a graphic illustration of data showing that underivatized, aqueous soluble β(1-3) glucan and high molecular weight underivatized, aqueous soluble β(1-3) glucan (Network) compete more effectively for ^3H-underivatized, aqueous soluble β(1-3)-glucan binding to lactosyl ceramide in a 96-well plate assay than do single helix or laminarin. […]\nLactosyl ceramide or the sample to be measured was suspended in ethanol. […] The plate was incubated at 60° C. for 5 minutes, then supernatants were removed and counted."}},
  "data": [
    {"substance": "underivatized, aqueous soluble β(1-3)-glucan [PGG-Glucan]", "values": [
      {"measurement": "binding of nuclear extract proteins to NF-IL6 specific 32P-labeled probe (EMSA, in words)", "setting": "NF-IL6 [1]", "value": "increased"},
      {"measurement": "NF-IL6 protein-^32P DNA complex formation (EMSA, in words)", "setting": "NF-IL6 [2]", "value": "time dependent increase in protein-DNA complexes"},
      {"measurement": "competition for ^3H-underivatized, aqueous soluble β(1-3)-glucan binding to LacCer in the reconstitution assay (in words)", "setting": "[3]", "value": "competes"},
      {"measurement": "competition for ^3H-underivatized, aqueous soluble β(1-3)-glucan binding to LacCer in the 96-well plate assay (in words)", "setting": "[4]", "value": "competes"}
    ]}
  ]
}
